Assay results from patent US10584108B2, “Therapeutic compounds and methods of use thereof” (KUALITY HERBCEUTICS LLC, priority 2015, dated 2020).

Key:
[1] = tested on: NNK-induced O^6-mG in A/J mouse lung tissues; experiment: Test A: in vivo effect on NNK-induced O^6-mG in A/J mouse lung tissues; conditions: A/J mice, compound 0.2 mg/g of diet for seven days, NNK 100 mg/kg i.p., lung tissue four hours after NNK
From the text: The ability of a compound of the invention to effect NNK-induced O^6-mG in A/J mouse lung tissues may be determined using pharmacological models which are well known to the art, or using Test A described below.
General Procedure of the In Vivo Effect on NNK-induced O^6-mG in A/J Mouse Lung Tissues
Five-six week old A/J mice were purchased from Jackson Lab. After one week of acclimatization, mice were randomized into different groups. Mice were given to the AIN-G powdered diet supplemented with the corresponding compound at a dose of 0.2 mg/g of diet for seven days. Subsequently, with the exception of mice in the negative control groups, animals were given NNK (100 mg/kg of bodyweight at the beginning of Day 7 via i.p. injection) (control mice will be given saline). Four hours NNK administration, mice in each group were euthanized with serum, urine, lung and liver tissues collected. O^6-mG DNA adducts in the lung tissues were quantified following established procedures (1, 2). The relative amount of reduction was calculated as the percentage of reduction relative the amount of O^6-mG in the NNK-treated positive control group.

[2] = tested on: CYP1A1 mRNA in Hepe1c1c7 cells; experiment: Test B: in vitro effect on CYP1A1 activation (CYP1A1 mRNA by q-RT PCR); assay type: cell-based; conditions: 5 μM in 0.5% DMSO, ratio treated to untreated, normalized to GAPDH mRNA
Protocol: The ability of a compound of the invention to effect CYP1A1 activation may be determined using pharmacological models which are well known to the art, or using Test B described below.
General Procedures of the In Vitro Effect on CYP1A1 Activation
Hepe1c1c7 cells were cultured under standard conditions and seeded in 6-well plate. After complete attachment (12-24 hours after seeding), the cells were treated with the corresponding compounds at the concentration of 5 μM, supplemented in 0.5% DMSO. Cells were trypsinized and pelleted. mRNAs were isolated. The relative amount of CYP1A1 mRNA were quantified via q-RT PCR and normalized to the amount of GAPDH mRNA from the same sample. Induction of CYP1A1 mRNA is defined as the ratio of CYP1A1 mRNA between treated samples to the untreated sample.

[3] = tested on: NNK-induced lung tumorigenesis; conditions: background statement, literature; cited from earlier work
[4] = tested on: NNK-induced DNA damage (O^6-mG); conditions: background statement, literature; cited from earlier work
[5] = biological target: T1, aryl hydrocarbon receptors (Homo sapiens, UniProt P35869); conditions: background statement, literature; cited from earlier work
T1 sequence (P35869 11-848): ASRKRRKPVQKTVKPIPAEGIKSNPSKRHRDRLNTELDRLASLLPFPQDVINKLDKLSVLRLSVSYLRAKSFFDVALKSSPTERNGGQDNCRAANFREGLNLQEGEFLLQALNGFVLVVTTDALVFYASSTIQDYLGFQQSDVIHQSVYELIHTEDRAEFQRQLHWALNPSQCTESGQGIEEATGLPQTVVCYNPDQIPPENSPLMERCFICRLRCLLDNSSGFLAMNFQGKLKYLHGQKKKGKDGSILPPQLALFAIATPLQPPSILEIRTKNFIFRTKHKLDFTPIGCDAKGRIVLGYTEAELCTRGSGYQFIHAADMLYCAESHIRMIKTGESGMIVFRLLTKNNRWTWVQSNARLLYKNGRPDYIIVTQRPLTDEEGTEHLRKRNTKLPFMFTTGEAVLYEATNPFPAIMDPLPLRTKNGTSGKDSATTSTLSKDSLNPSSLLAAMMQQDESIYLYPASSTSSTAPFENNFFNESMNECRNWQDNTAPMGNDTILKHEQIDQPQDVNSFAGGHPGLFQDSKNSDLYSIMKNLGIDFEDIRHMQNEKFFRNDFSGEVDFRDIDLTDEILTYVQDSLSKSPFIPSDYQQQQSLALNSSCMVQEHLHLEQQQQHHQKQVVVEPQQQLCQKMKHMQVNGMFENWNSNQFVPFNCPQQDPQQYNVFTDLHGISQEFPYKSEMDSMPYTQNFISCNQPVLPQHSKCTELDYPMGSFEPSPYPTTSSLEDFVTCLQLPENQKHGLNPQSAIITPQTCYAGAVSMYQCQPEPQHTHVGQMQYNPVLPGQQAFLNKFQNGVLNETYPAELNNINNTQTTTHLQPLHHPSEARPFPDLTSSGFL

COC1=CC(=O)OC(/C=C/c2ccc3c(c2)OCO3)C1 (stereo not drawn)
Relative amount of reduction in O^6-mG (mean ± SD) % in comparison to NNK-treated control [1]: 54.6 ± 1.2% | Induction of CYP1A1 mRNA [2]: 0.26 ± 0.01

COC1=C(C)C(=O)OC(CCc2ccc3c(c2)OCO3)C1 (stereo not drawn)
Relative amount of reduction in O^6-mG (mean ± SD) % in comparison to NNK-treated control [1]: 65.3 ± 5.8% | Induction of CYP1A1 mRNA [2]: 0.59 ± 0.04

COC1=CC(=O)OC(CCc2ccc3c(c2)OCCO3)C1 (stereo not drawn)
Relative amount of reduction in O^6-mG (mean ± SD) % in comparison to NNK-treated control [1]: 3.24 ± 13.4% | Induction of CYP1A1 mRNA [2]: 3.73 ± 0.26

COC1=CC(=O)OC(CCc2ccc3c(c2)OCO3)C1 (stereo not drawn)
Relative amount of reduction in O^6-mG (mean ± SD) % in comparison to NNK-treated control [1]: 72.7 ± 6.6%

O=C1C=CCC(CCc2ccc3c(c2)OCO3)O1 (stereo not drawn)
Relative amount of reduction in O^6-mG (mean ± SD) % in comparison to NNK-treated control [1]: 35.2 ± 31.8% | Induction of CYP1A1 mRNA [2]: 5.94 ± 0.22

COC1=CC(=O)O[C@@H](CCc2ccc3c(c2)OCO3)C1 [drawing 26]
Relative amount of reduction in O^6-mG (mean ± SD) % in comparison to NNK-treated control [1]: 76.9 ± 2.6% | Induction of CYP1A1 mRNA [2]: 1.88 ± 0.07

COC1=CC(=O)OC(CCc2ccc(OC)c(O)c2)C1 (stereo not drawn)
Relative amount of reduction in O^6-mG (mean ± SD) % in comparison to NNK-treated control [1]: −2.6 ± 14.7% | Induction of CYP1A1 mRNA [2]: 5.61 ± 0.40

COC1=CC(=O)O[C@H](CCc2ccc3c(c2)OCO3)C1
Relative amount of reduction in O^6-mG (mean ± SD) % in comparison to NNK-treated control [1]: 79.6 ± 1.5%

COC1=CC(=O)OC(/C=C/c2ccc3c(c2)OCCO3)C1 (stereo not drawn) [drawing 40]
Relative amount of reduction in O^6-mG (mean ± SD) % in comparison to NNK-treated control [1]: 5.2 ± 13.0% | Induction of CYP1A1 mRNA [2]: 1.15 ± 0.02

COC1=CC(=O)CC(CCc2ccc3c(c2)OCO3)C1 (stereo not drawn)
Relative amount of reduction in O^6-mG (mean ± SD) % in comparison to NNK-treated control [1]: 63.7 ± 21.9% | Induction of CYP1A1 mRNA [2]: 5.58 ± 0.55

COC1=CC(=O)OC(CCc2ccc3c(c2)CCC3)C1 (stereo not drawn)
Relative amount of reduction in O^6-mG (mean ± SD) % in comparison to NNK-treated control [1]: 29.7 ± 16.3% | Induction of CYP1A1 mRNA [2]: 0.79 ± 0.02

COC1=CC(=O)CC(CCc2ccc3c(c2)CCC3)C1 (stereo not drawn)
Relative amount of reduction in O^6-mG (mean ± SD) % in comparison to NNK-treated control [1]: 11.8 ± 23.1%

COC1=CC(=O)O[C@@H](CCc2ccc3c(c2)OCO3)C1 [(+)-Dihydromethysticin]
Block of NNK-induced lung tumorigenesis [3]: effectively block | Inhibition of NNK-induced O^6-mG DNA damage [4]: can be inhibited

COC1=CC(=O)OC(CCc2ccc3c(c2)OCO3)C1C (stereo not drawn)
Induction of CYP1A1 mRNA [2]: 2.16 ± 0.11

O=C1C=C(O)CC(CCc2ccc3c(c2)OCO3)O1 (stereo not drawn)
Relative amount of reduction in O^6-mG (mean ± SD) % in comparison to NNK-treated control [1]: 55.9 ± 19.7% | Induction of CYP1A1 mRNA [2]: 1.20 ± 0.1

COC1=CC(=O)OC(C)(CCc2ccc3c(c2)OCO3)C1 (stereo not drawn)
Relative amount of reduction in O^6-mG (mean ± SD) % in comparison to NNK-treated control [1]: 56.2 ± 8.1% | Induction of CYP1A1 mRNA [2]: 2.49 ± 0.08

COC1=CC(=O)OC(/C=C/c2ccc3c(c2)OCCO3)C1 (stereo not drawn) [drawing 65]
Relative amount of reduction in O^6-mG (mean ± SD) % in comparison to NNK-treated control [1]: 5.2 ± 13.0%

COC1=CC(=O)O[C@@H](CCc2ccc3c(c2)OCO3)C1 [dihydromethysticin]
Activation of aryl hydrocarbon receptors [5]: activate
